Legend:
Assay in all cases: in vitro antibacterial activity (MIC), BHI agar dilution
Assay type in all cases: cell-based
[1] = test system: Micrococcus luteus ATCC 4698; conditions: M. luteus ATCC 4698, 35-37° C., 20 to 24 hours
Experimental: (§1) Representative compounds of the present invention were assayed in vitro for antibacterial activity as follows: Twelve petri dishes containing successive aqueous dilutions of the test compound mixed with 10 mL of sterilized Brain Heart Infusion (BHI) agar (Difco 0418-01-5) were prepared. Each plate was inoculated with 1:100 (or 1:10 for slow-growing strains, such as Micrococcus and Streptococcus) dilutions of up to 32 different microorganisms, using a Steers replicator block. […] In addition, a control plate, using BHI agar containing no test compound, was prepared and incubated at the beginning and end of each test.
(§2) An additional plate containing a compound having known susceptibility patterns for the organisms being tested and belonging to the same antibiotic class as the test compound was also prepared and incubated as a further control, as well as to provide test-to-test comparability.
(§3) After incubation, each plate was visually inspected. The minimum inhibitory concentration (MIC) was defined as the lowest concentration of drug yielding no growth, a slight haze, or sparsely isolated colonies on the inoculum spot as compared to the growth control.

[2] = test system: Staphylococcus aureus CMX 553; conditions: S. aureus CMX 553, 35-37° C., 20 to 24 hours
Experimental: as §1, §2, §3

[3] = test system: Staphylococcus aureus A5177; conditions: S. aureus A5177, 35-37° C., 20 to 24 hours
Experimental: as §1, §2, §3

[4] = test system: Staphylococcus aureus ATCC 6538P; conditions: S. aureus ATCC 6538P, 35-37° C., 20 to 24 hours
Experimental: as §1, §2, §3

[5] = test system: Enterococcus faecium ATCC 8043; conditions: E. faecium ATCC 8043, 35-37° C., 20 to 24 hours
Experimental: as §1, §2, §3

[6] = test system: Streptococcus Pheumoniae 5649; conditions: 35-37° C., 20 to 24 hours
Experimental: as §1, §2, §3

Escherichia coli DC-2 = conditions: E. coli DC-2, 35-37° C., 20 to 24 hours
Experimental: as §1, §2, §3

[7] = test system: Streptococcus Pheumoniae ATCC6303; conditions: 35-37° C., 20 to 24 hours
Experimental: as §1, §2, §3

Candida albicans CCH 442 = conditions: C. albicans CCH 442, 35-37° C., 20 to 24 hours
Experimental: as §1, §2, §3

[8] = test system: Staphylococcus epidermidis 3519; conditions: S. epidermidis 3519, 35-37° C., 20 to 24 hours
Experimental: as §1, §2, §3

[9] = test system: Staphylococcus aureus NCTC10649M; conditions: S. aureus NCTC10649M, 35-37° C., 20 to 24 hours
Experimental: as §1, §2, §3

[10] = test system: Haemophilis Influenzae DILL AMP R; conditions: 35-37° C., 20 to 24 hours
Experimental: as §1, §2, §3

[11] = test system: Staphylococcus aureus CMX 642A; conditions: S. aureus CMX 642A, 35-37° C., 20 to 24 hours
Experimental: as §1, §2, §3

[12] = test system: Mycobacterium smegmafis ATCC 114; conditions: 35-37° C., 20 to 24 hours
Experimental: as §1, §2, §3

[13] = test system: Streptococcus pyogenes 930; conditions: S. pyogenes 930, 35-37° C., 20 to 24 hours
Experimental: as §1, §2, §3

[14] = test system: Streptococcus agalactiae CMX 508; conditions: S. agalactiae CMX 508, 35-37° C., 20 to 24 hours
Experimental: as §1, §2, §3

[15] = test system: Streptococcus bovis A-5169; conditions: S. bovis A-5169, 35-37° C., 20 to 24 hours
Experimental: as §1, §2, §3

Escherichia coli JUHL = conditions: E. coli JUHL, 35-37° C., 20 to 24 hours
Experimental: as §1, §2, §3

[16] = test system: Streptococcus pyogenes EES61; conditions: S. pyogenes EES61, 35-37° C., 20 to 24 hours
Experimental: as §1, §2, §3

[17] = test system: Streptococcus Pheumoniae GYR 1171; conditions: 35-37° C., 20 to 24 hours
Experimental: as §1, §2, §3

[18] = test system: Micrococcus luteus ATCC 9341; conditions: M. luteus ATCC 9341, 35-37° C., 20 to 24 hours
Experimental: as §1, §2, §3

[19] = test system: Staphylococcus aureus 1775; conditions: S. aureus 1775, 35-37° C., 20 to 24 hours
Experimental: as §1, §2, §3

[20] = test system: Streptococcus pyogenes PIU 2548; conditions: S. pyogenes PIU 2548, 35-37° C., 20 to 24 hours
Experimental: as §1, §2, §3

[21] = test system: Staphylococcus aureus A-5278; conditions: S. aureus A-5278, 35-37° C., 20 to 24 hours
Experimental: as §1, §2, §3

[22] = test system: Streptococcus Pheumoniae 5979; conditions: 35-37° C., 20 to 24 hours
Experimental: as §1, §2, §3

Escherichia coli SS = conditions: E. coli SS, 35-37° C., 20 to 24 hours
Experimental: as §1, §2, §3

[23] = test system: Nocardia Asteroides ATCC9970; conditions: 35-37° C., 20 to 24 hours
Experimental: as §1, §2, §3

| Compound | MIC (minimum inhibitory concentration) [1] | MIC (minimum inhibitory concentration) [2] | MIC (minimum inhibitory concentration) [3] | MIC (minimum inhibitory concentration) [4] | MIC (minimum inhibitory concentration) [5] | MIC (minimum inhibitory concentration) [6] | MIC (minimum inhibitory concentration) (Escherichia coli DC-2) | MIC (minimum inhibitory concentration) [7] | MIC (minimum inhibitory concentration) (Candida albicans CCH 442) | MIC (minimum inhibitory concentration) [8] | MIC (minimum inhibitory concentration) [10] | MIC (minimum inhibitory concentration) [11] | MIC (minimum inhibitory concentration) [12] | MIC (minimum inhibitory concentration) [13] | MIC (minimum inhibitory concentration) [14] | MIC (minimum inhibitory concentration) [15] | MIC (minimum inhibitory concentration) (Escherichia coli JUHL) | MIC (minimum inhibitory concentration) [16] | MIC (minimum inhibitory concentration) [17] | MIC (minimum inhibitory concentration) [18] | also measured |
| --- | --- | --- | --- | --- | --- | --- | --- | --- | --- | --- | --- | --- | --- | --- | --- | --- | --- | --- | --- | --- | --- |
| CC[C@H]1OC(=O)[C@H](C)[C@@H](O[C@H]2C[C@@](C)(OC)[C@@H](O)[C@H](C)O2)[C@H](C)[C@@H](O[C@@H]2O[C@H](C)C[C@H](N(C)C)[C@H]2O)[C@](C)(O)C[C@@H](C)C(=O)[C@H](C)[C@@H](O)[C@]1(C)O [Ery. A, Erythromycin A, reference compound] | 0.2 | 0.39 | 3.1 | 0.2 | 0.05 | 16 | > 100 | 0.06 | > 100 | 0.39 | 4 | 0.39 | 3.1 | > 100 | 0.05 | 0.02 | > 100 | 0.05 | 0.06 | 0.05 | MIC (minimum inhibitory concentration) [9]: 0.39; MIC (minimum inhibitory concentration) [19]: > 100; MIC (minimum inhibitory concentration) [20]: 6.2; MIC (minimum inhibitory concentration) [21]: > 100 |
| CC[C@H]1OC(=O)[C@H](C)[C@@H](O[C@H]2C[C@@](C)(OC)[C@@H](O)[C@H](C)O2)[C@H](C)[C@@H](O[C@@H]2O[C@H](C)C[C@H](N(C)C)[C@H]2O)[C@@]2(C)C[C@@H](C)C(=NOCO2)[C@H](C)[C@@H](O)[C@]1(C)O [Example 1] | 1.56 | 6.2 | > 100 | 6.2 | 1.56 | 4 | > 100 | 1 | > 100 | 6.2 | 32 | 12.5 | 1.56 | > 100 | 0.39 | 0.39 | > 100 | 0.39 | 0.5 | 0.2 | MIC (minimum inhibitory concentration) [22]: > 64; MIC (minimum inhibitory concentration) [9]: 6.2; MIC (minimum inhibitory concentration) (Escherichia coli SS): 1.56; MIC (minimum inhibitory concentration) [23]: 0.39; MIC (minimum inhibitory concentration) [19]: > 100; MIC (minimum inhibitory concentration) [20]: 6.2; MIC (minimum inhibitory concentration) [21]: > 100 |
| CC[C@H]1OC(=O)[C@H](C)[C@@H](O[C@H]2C[C@@](C)(OC)[C@@H](O)[C@H](C)O2)[C@H](C)[C@@H](O[C@@H]2O[C@H](C)C[C@H](N(C)C)[C@H]2O)[C@@]2(C)C[C@@H](C)C(=NOCO2)[C@H](C)[C@H]2OC(=O)O[C@@]21C [Example 2] | 0.39 | 0.78 | 3.1 | 0.39 | 0.1 | 4 | 25 | 0.06 | > 100 | 0.39 | 2 | 0.39 | 3.1 | > 100 | 0.05 | 0.02 | 50 | <= 0.005 | 0.03 | 0.1 | MIC (minimum inhibitory concentration) [22]: > 128; MIC (minimum inhibitory concentration) (Escherichia coli SS): 0.78; MIC (minimum inhibitory concentration) [23]: 0.1; MIC (minimum inhibitory concentration) [19]: > 100; MIC (minimum inhibitory concentration) [20]: 3.1; MIC (minimum inhibitory concentration) [21]: > 100 |

— patent US5780605A, “6,9-bridged erythromycin derivatives” (Abbott Laboratories, priority 1997, dated 1998)
